Test results published in patent publication US11254661B2, “Quinoline derivatives for treating infections with helminths” (Bayer Animal Health GMBH, priority 2017, dated 2022).

Key:
[1] = system: Dirofilaria immitis microfilariae; experiment: In Vitro Assay 2: Dirofilaria immitis microfilariae (DIROIM L1) motility; conditions: 72 h
C. elegans Slo-1a = C. elegans Slo-1a (Caenorhabditis elegans, UniProt Q95V25)
Chain of C. elegans Slo-1a (Q95V25 whole entry): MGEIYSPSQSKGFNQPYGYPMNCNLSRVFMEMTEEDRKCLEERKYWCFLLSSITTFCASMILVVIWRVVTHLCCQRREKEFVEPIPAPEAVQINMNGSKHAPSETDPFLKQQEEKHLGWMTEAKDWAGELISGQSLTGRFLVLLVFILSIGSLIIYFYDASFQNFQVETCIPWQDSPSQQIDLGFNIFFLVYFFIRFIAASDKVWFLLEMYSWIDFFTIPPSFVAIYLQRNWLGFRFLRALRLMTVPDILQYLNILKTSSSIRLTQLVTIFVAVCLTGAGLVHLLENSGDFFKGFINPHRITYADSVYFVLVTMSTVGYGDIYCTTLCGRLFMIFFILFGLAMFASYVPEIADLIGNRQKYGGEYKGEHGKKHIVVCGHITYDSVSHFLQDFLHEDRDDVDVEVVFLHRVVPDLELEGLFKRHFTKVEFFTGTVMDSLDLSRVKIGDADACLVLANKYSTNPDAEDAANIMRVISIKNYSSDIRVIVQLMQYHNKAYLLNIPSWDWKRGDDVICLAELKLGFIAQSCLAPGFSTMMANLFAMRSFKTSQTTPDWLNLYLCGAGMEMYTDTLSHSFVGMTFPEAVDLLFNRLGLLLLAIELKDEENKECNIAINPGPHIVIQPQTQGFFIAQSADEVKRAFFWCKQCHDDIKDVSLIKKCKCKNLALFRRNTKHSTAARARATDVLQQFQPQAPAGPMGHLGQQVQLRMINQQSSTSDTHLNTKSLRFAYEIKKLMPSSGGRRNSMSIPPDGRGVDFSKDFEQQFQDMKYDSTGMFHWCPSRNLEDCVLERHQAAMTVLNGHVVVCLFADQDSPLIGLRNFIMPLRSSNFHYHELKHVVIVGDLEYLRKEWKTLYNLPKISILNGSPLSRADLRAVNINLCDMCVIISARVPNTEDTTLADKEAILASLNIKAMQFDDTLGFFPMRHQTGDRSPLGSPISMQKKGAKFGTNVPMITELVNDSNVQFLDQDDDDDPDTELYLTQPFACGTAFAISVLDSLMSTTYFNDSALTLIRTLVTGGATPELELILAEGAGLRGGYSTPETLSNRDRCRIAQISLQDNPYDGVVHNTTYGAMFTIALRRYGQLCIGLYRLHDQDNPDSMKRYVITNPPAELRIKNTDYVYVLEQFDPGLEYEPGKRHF
Procedure: In Vitro Assay 1: C. elegans Slo-1a—Action at a Recombinant C. elegans Cell Line
Cells were cultured at 37° C. and 5% CO2 in MEMalpha with Gutamax I (Invitrogen, Nr.: 32571), supplemented with 10% (v/v) heat inactivated fetal bovine serum (Invitrogen, Nr.: 10500), G418 (1 mg/ml, Invitrogen, Nr.: 10131). Cells were detached using Accutase (Sigma, Nr.: A6964).
Membrane Potential Measurements
Laboratory compound testing was performed on 384-well microtiter plates (MTPs, Greiner, Nr.: 781092). 8000 cells/well were plated onto 384-well MTPs and cultured for 20 to 24 hours at 37° C. and 5% CO2. After removal of the cell culture medium, the cells were washed once with tyrode (150 mM NaCl, 0.3 mM KCl, 2 mM CaCl2, 1 mM MgCl2, 0.8 mM NaH2PO4, 5 mM Glucose, 28 mM Hepes, pH 7.4) and then loaded with the voltage sensitive dye of the Membrane Potential Assay Kit diluted in tyrode for 1 h at room temperature.
After starting the measurement of fluorescence using a FLIPR Tetra(Molecular Devices, Exc. 510-545 nm, Emm. 565-625 nm), test compounds were added followed by the addition of KCl tyrode (final assay concentration: 70 mM KCl, 2 mM CaCl2, 1 mM MgCl2, 0.8 mM NaH2PO4, 5 mM Glucose, 28 mM Hepes, pH 7.4, including the voltage sensitive dye). The measurement was completed after 7 minutes.

SMILES | EC50 [1] [µg/mL] | EC50 (C. elegans Slo-1a) [nM]
CN(C)c1c(C(=O)N[C@H]2CCOc3ccccc32)cnc2c(C3CN(C(=O)OC(C)(C)C)C3)cccc12 [Example 20, tert-Butyl(S)-3-(3-(chroman-4-ylcarbamoyl)-4-(dimethylamino)quinolin-8-yl)azetidine-1-carboxylate] | < 10 | 316 to 5010
CN(C)c1c(C(=O)N[C@H]2CCOc3ccccc32)cnc2c(C3=CCC(C(F)(F)F)CC3)cccc12 (stereo partly drawn) [Example 16, N—((S)-Chroman-4-yl)-4-(dimethylamino)-8-(4-(trifluoromethyl)cyclohex-1-en-1-yl)quinoline-3-carboxamide] | < 1 | 3.16 to 31.6
CN(C)c1c(C(=O)N[C@H]2CCc3ccccc32)cnc2c(N3CCCC3)c(F)ccc12 [Example 42, N-[(1S)-2,3-dihydro-1H-inden-1-yl]-4-(dimethylamino)-7-fluoro-8-(pyrrolidin-1-yl)quinoline-3-carboxamide] | < 10 | 31.6 to 316
CN(C)c1c(C(=O)N[C@H]2CCOc3ccccc32)cnc2c(C3=CCCC3)cccc12 [Example 7, (S)—N-(Chroman-4-yl)-8-(cyclopent-1-en-1-yl)-4-(dimethylamino)quinoline-3-carboxamide] | < 1 | 3.16 to 31.6
O=C(N[C@H]1CCOc2ccccc21)c1cnc2c(NC3CCCCC3)cccc2c1N1CCOCC1 [Example 25, 8-(cyclohexylamino)-N-[(4S)-3,4-dihydro-2H-chromen-4-yl]-4-(morpholin-4-yl)quinoline-3-carboxamide] | < 10 | 3.16 to 31.6
CN(C)c1c(C(=O)N[C@H]2CCOc3ccccc32)cnc2c(C3=CCCCC3)cccc12 [Example 11, (S)—N-(Chroman-4-yl)-8-(cyclohex-1-en-1-yl)-4-(dimethylamino)quinoline-3-carboxamide] | < 1 | 3.16 to 31.6
COCCCc1cccc2c(N(C)C)c(C(=O)N[C@H]3CCOc4ccccc43)cnc12 [Example 4, (S)—N-(Chroman-4-yl)-4-(dimethylamino)-8-(3-methoxypropyl)quinoline-3-carboxamide] | < 10 | 316 to 5010
C[C@H]1COCCN1c1cccc2c(N3CCOCC3)c(C(=O)N[C@H]3CCOc4ccccc43)cnc12 [Example 23, N-[(4S)-3,4-Dihydro-2H-chromen-4-yl]-8-[(3S)-3-methylmorpholin-4-yl]-4-(morpholin-4-yl)quinoline-3-carboxamide] | < 10 | 316 to 5010
CN(C)c1c(C(=O)N[C@H]2CCc3ccccc32)cnc2c(N3CCC(F)(F)CC3)c(F)ccc12 [Example 39, 8-(4,4-difluoropiperidin-1-yl)-N-[(1S)-2,3-dihydro-1H-inden-1-yl]-4-(dimethylamino)-7-fluoroquinoline-3-carboxamide] | < 1 | 3.16 to 31.6
CN(C)c1c(C(=O)N[C@H]2CCOc3ccccc32)cnc2c(C3CCCC3)cccc12 [Example 8, (S)—N-(Chroman-4-yl)-8-cyclopentyl-4-(dimethylamino)quinoline-3-carboxamide] | < 0.1 | < 3.16
C[C@@H]1CN(c2cccc3c(N4CCOCC4)c(C(=O)N[C@H]4CCOc5ccccc54)cnc23)C[C@@H](C)O1 [Example 32, N-[(4S)-3,4-dihydro-2H-chromen-4-yl]-8-[(2R,6R)-2,6-dimethylmorpholin-4-yl]-4-(morpholin-4-yl)quinoline-3-carboxamide] | < 1 | 316 to 5010
CN(C)c1c(C(=O)N[C@H]2CCOc3ccccc32)cnc2c(C3CCC(C)(C)CC3)cccc12 [Example 19, (S)—N-(Chroman-4-yl)-4-(dimethylamino)-8-(4,4-dimethylcyclohexyl)quinoline-3-carboxamide] | < 1 | 31.6 to 316
C[C@@H]1CN(c2cccc3c(N4CCOCC4)c(C(=O)N[C@H]4CCOc5ccccc54)cnc23)C[C@H](C)O1 [Example 31, N-[(4S)-3,4-dihydro-2H-chromen-4-yl]-8-[(2R,6S)-2,6-dimethylmorpholin-4-yl]-4-(morpholin-4-yl)quinoline-3-carboxamide] | < 10 | 31.6 to 316
CN(C)c1c(C(=O)N[C@H]2CCOc3ccccc32)cnc2c(C3CCOCC3)cccc12 [Example 6, (S)—N-(Chroman-4-yl)-4-(dimethylamino)-8-(tetrahydro-2H-pyran-4-yl)quinoline-3-carboxamide] | < 1 | 31.6 to 316
O=C(N[C@H]1CCc2ccccc21)c1cnc2c(N3CCOCC3)c(F)ccc2c1N1CCOCC1 [Example 45, N-[(1S)-2,3-dihydro-1H-inden-1-yl]-7-fluoro-4,8-di(morpholin-4-yl)quinoline-3-carboxamide] | < 1 | 31.6 to 316
CN(C)c1c(C(=O)N[C@H]2CCOc3ccccc32)cnc2c(C3CCCCC3)cccc12 [Example 12, (S)—N-(Chroman-4-yl)-8-cyclohexyl-4-(dimethylamino)quinoline-3-carboxamide] | < 0.1 | 3.16 to 31.6
CC1CC(C)CN(c2c(F)ccc3c(N(C)C)c(C(=O)N[C@H]4CCc5ccccc54)cnc23)C1 (stereo partly drawn) [Example 41, N-[(1S)-2,3-dihydro-1H-inden-1-yl]-4-(dimethylamino)-8-(3,5-dimethylpiperidin-1-yl)-7-fluoroquinoline-3-carboxamide] | < 1 | 3.16 to 31.6

SMILES | EC50 [1] [µg/mL] | EC50 (C. elegans Slo-1a) [nM]
CN(C)c1c(C(=O)N[C@H]2CCOc3ccccc32)cnc2c(C3COC3)cccc12 [Example 5, (S)—N-(Chroman-4-yl)-4-(dimethylamino)-8-(oxetan-3-yl)quinoline-3-carboxamide] | < 10 | 316 to 5010
CN(C)c1c(C(=O)N[C@H]2CCc3ccccc32)cnc2c(N3CCOCC3)c(F)ccc12 [Example 47, N-[(1S)-2,3-dihydro-1H-inden-1-yl]-4-(dimethylamino)-7-fluoro-8-(morpholin-4-yl)quinoline-3-carboxamide] | < 10 | 316 to 5010
CC(C)(C)OC(=O)Nc1cccc2c(N3CCOCC3)c(C(=O)N[C@H]3CCOc4ccccc43)cnc12 [Example 26, tert-butyl {3-[(4S)-3,4-dihydro-2H-chromen-4-ylcarbamoyl]-4-(morpholin-4-yl)quinolin-8-yl}carbamate] | < 0.1 | 3.16 to 31.6
O=C(N[C@H]1CCOc2ccccc21)c1cnc2c(N3CCCCC3)cccc2c1N1CCOCC1 [Example 29, N-[(4S)-3,4-dihydro-2H-chromen-4-yl]-4-(morpholin-4-yl)-8-(piperidin-1-yl)quinoline-3-carboxamide] | < 0.1 | 31.6 to 316
CN(C)c1c(C(=O)N[C@H]2CCOc3ccccc32)cnc2c(C3=CCCCCC3)cccc12 [Example 14, (S)—N-(Chroman-4-yl)-8-(cyclohept-1-en-1-yl)-4-(dimethylamino)quinoline-3-carboxamide] | < 0.1 | 3.16 to 31.6
CC(C)c1c(C(=O)N[C@H]2CCOc3ccccc32)cnc2c(N3CCCCC3)cccc12 [Example 35, N-[(4S)-3,4-dihydro-2H-chromen-4-yl]-8-(piperidin-1-yl)-4-(propan-2-yl)quinoline-3-carboxamide] | < 0.1 | 31.6 to 316
C[C@@H]1COCCN1c1cccc2c(N3CCOCC3)c(C(=O)N[C@H]3CCOc4ccccc43)cnc12 [Example 27, N-[(4S)-3,4-dihydro-2H-chromen-4-yl]-8-[(3R)-3-methylmorpholin-4-yl]-4-(morpholin-4-yl)quinoline-3-carboxamide] | < 1 | 316 to 5010
CC(C)c1cccc2c(N(C)C)c(C(=O)N[C@H]3CCOc4ccccc43)cnc12 [Example 10, (S)—N-(Chroman-4-yl)-4-(dimethylamino)-8-isopropylquinoline-3-carboxamide] | < 1 | 31.6 to 316
COCC#Cc1cccc2c(N(C)C)c(C(=O)N[C@H]3CCOc4ccccc43)cnc12 [Example 2, (S)—N-(Chroman-4-yl)-4-(dimethylamino)-8-(3-methoxyprop-1-yn-1-yl)quinoline-3-carboxamide] | < 10 | 316 to 5010
CC(C)C#Cc1cccc2c(N(C)C)c(C(=O)N[C@H]3CCOc4ccccc43)cnc12 [Example 1, (S)—N-(Chroman-4-yl)-4-(dimethylamino)-8-(3-methylbut-1-yn-1-yl)quinoline-3-carboxamide] | < 10 | 31.6 to 316
CN(C)c1c(C(=O)N[C@H]2CCc3ccccc32)cnc2c(N3CCCCC3)c(F)ccc12 [Example 44, N-[(1S)-2,3-dihydro-1H-inden-1-yl]-4-(dimethylamino)-7-fluoro-8-(piperidin-1-yl)quinoline-3-carboxamide] | < 1 | 3.16 to 31.6
CN(C)c1c(C(=O)N[C@H]2CCOc3ccccc32)cnc2c(C3=CCOCC3)cccc12 [Example 13, (S)—N-(Chroman-4-yl)-8-(3,6-dihydro-2H-pyran-4-yl)-4-(dimethylamino)quinoline-3-carboxamide] | < 1 | 31.6 to 316
CC(C)c1c(C(=O)N[C@H]2CCOc3ccccc32)cnc2c(N3C[C@H](C)C[C@H](C)C3)cccc12 [Example 36, N-[(4S)-3,4-dihydro-2H-chromen-4-yl]-8-[(3R,5S)-3,5-dimethylpiperidin-1-yl]-4-(propan-2-yl)quinoline-3-carboxamide] | < 0.1 | 3.16 to 31.6
C=C(C)c1cccc2c(N(C)C)c(C(=O)N[C@H]3CCOc4ccccc43)cnc12 [Example 9, (S)—N-(Chroman-4-yl)-4-(dimethylamino)-8-(prop-1-en-2-yl)quinoline-3-carboxamide] | < 1 | 31.6 to 316
CC(C)CCc1cccc2c(N(C)C)c(C(=O)N[C@H]3CCOc4ccccc43)cnc12 [Example 3, (S)—N-(Chroman-4-yl)-4-(dimethylamino)-8-isopentylquinoline-3-carboxamide] | < 1 | 3.16 to 31.6
CC(=O)Nc1cccc2c(N3CCOCC3)c(C(=O)N[C@H]3CCOc4ccccc43)cnc12 [Example 28, 8-(acetylamino)-N-[(4S)-3,4-dihydro-2H-chromen-4-yl]-4-(morpholin-4-yl)quinoline-3-carboxamide] | < 10 | 316 to 5010
